Assay type in all cases: binding, mouse
In assay [1] the test system is monoclonal antibody HB-13 (IgG1, kappa; hybridoma ATCC HB-12167). Put plainly: Competitive indirect ELISA (CI-ELISA), solid-phase antigen HB-SMPB-S-BSA. The following applies: for average IC50: free competitor in CI-ELISA; for cross-reactivity with the HB-13 antibody: competitor concentration of 50 ppm. As for the experimental part:
The supernatant culture fluid from the cloned hybridomas may also be screened to select for those producing antibodies having a high affinity for hygromycin B. Affinity may be measured using a variety of well known techniques, such as ELISA, RIA or equilibrium dialysis using labelled hygromycin B. Competitive indirect ELISA (CI-ELISA) is preferred, and is conducted at a final antibody concentration (dilution from tissue culture supernatant) to give 50% of maximal binding to a hygromycin B coated substrate or assay well. In accordance with this embodiment, the antibody containing supernatant is added to a hygromycin B conjugate-coated solid substrate such as the wells of an assay plate, together with a range of concentrations of free hygromycin B as a competitor. Following incubation and washing, bound antibody in the wells is determined in the same manner as the indirect-ELISA. Percent inhibition may be calculated as (1-B/Bo)×100 where B is the optical density (OD) of a well with a competitor and Bo is the mean OD of the wells without competitor (control). […] However, for even greater accuracy, the affinity may be alternatively measured at 50% inhibition (IC50).
A competitive indirect ELISA (CI-ELISA) was used to determine the sensitivity and specificity of the monoclonal antibodies for binding hygromycin B. Microtiter plates were coated with HB-SMPB-S-BSA (400 ng/well) and blocked with 3% non-fat milk solution as described above. After washing five times with 0.05% Tween 20 in distilled water, 100 μL of hygromycin B standard in assay buffer (0.1M Tris, 0.15M NaCl, 0.05% Tween 20, 1% BSA, pH 7.5) and 100 μL antiserum (diluted 1:60 in assay buffer) were added to each well and incubated for 90 min at 37° C. Unbound antibody was removed by washing five times with the 0.05% Tween 20-water solution. Next, 50 μL of goat anti-mouse IgG-peroxidase conjugate (1:500 dilution) was added to each well. After a 60 min incubation at 37° C., the plates were washed ten times with 0.05% Tween 20, and bound antibody-peroxidase conjugate was determined using ABTS. Absorbance was read at 405 nm.
Each point represents the average of 6 replicates. […] The mean intraassay IC50 coefficient of variation (CV) was 7.8% (n=3), while a mean interassay IC50 coefficient of variation of 7.0% (n=3) was observed. […] HB-13 was also characterized as to its ability to recognize related aminoglycoside antibiotics, including spiramycin, gentamicin, kanamycin, amikacin and tylosin.

Assay [2] has as its system monoclonal antibodies to hygromycin B obtained with the short immunization protocol. As to the kind of experiment: Competitive indirect ELISA (CI-ELISA). The following applies: range over antibodies from short immunization protocol. As for the experimental part: (§1) The supernatant culture fluid from the cloned hybridomas may also be screened to select for those producing antibodies having a high affinity for hygromycin B. Affinity may be measured using a variety of well known techniques, such as ELISA, RIA or equilibrium dialysis using labelled hygromycin B. Competitive indirect ELISA (CI-ELISA) is preferred, and is conducted at a final antibody concentration (dilution from tissue culture supernatant) to give 50% of maximal binding to a hygromycin B coated substrate or assay well. […]
In the short immunization schedule, female BALB/c mice (6-8 weeks of age) were injected intraperitoneally (ip) with 75 μg of HB-SMPB-S-OVA (in 0.2 mL physiological saline/RIBI adjuvant). […] One week after the second injection, the mice were bled and serum titers were determined. […]
(§2) A competitive indirect ELISA (CI-ELISA) was used to determine the sensitivity and specificity of the monoclonal antibodies for binding hygromycin B. Microtiter plates were coated with HB-SMPB-S-BSA (400 ng/well) and blocked with 3% non-fat milk solution as described above. […] After a 60 min incubation at 37° C., the plates were washed ten times with 0.05% Tween 20, and bound antibody-peroxidase conjugate was determined using ABTS. Absorbance was read at 405 nm. […]
(In general: ELISA stands for enzyme-linked immunosorbent assay.)

The subject of assay [3] is monoclonal antibodies to hygromycin B obtained with the extended immunization protocol (including HB-3, HB-7, HB-13). Put plainly: Competitive indirect ELISA (CI-ELISA). The following applies: range over antibodies from extended immunization protocol. As for the experimental part: as §1
In the extended immunization schedule, female BALB/c mice were immunized with 75 μg ip injections every two weeks for a total of three injections. On day 35, the mice were bled so that serum titers and antibody specificities could be determined. […]
as §2

`CNC1CC(N)C(O)C(OC2OC(CO)C(O)C3OC4(OC(C(N)CO)C(O)C(O)C4O)OC23)C1O` (stereo not drawn) [hygromycin B]: the “average IC50” value in assay [1] (each point average of 6 replicates) is 76.2 ng/well; in assay [1] (same value expressed as ppm), 0.762 ppm. The IC50 in assay [2] is given as 10-100 ppm; in assay [3] it was 0.7-1 ppm.

With `CC[C@H]1OC(=O)C[C@@H](O)[C@H](C)[C@@H](O[C@@H]2O[C@H](C)[C@@H](O[C@H]3C[C@@](C)(O)[C@@H](O)[C@H](C)O3)[C@H](N(C)C)[C@H]2O)[C@@H](CC=O)C[C@@H](C)C(=O)/C=C/C(C)=C/[C@@H]1CO[C@@H]1O[C@H](C)[C@@H](O)[C@@H](OC)[C@H]1OC` [tylosin], the “cross-reactivity with the HB-13 antibody” value in assay [1] is on record as “None of these compounds were observed to cross-react”.

On to gentamicin, for which the “cross-reactivity with the HB-13 antibody” value in assay [1] is listed as “None of these compounds were observed to cross-react”.

Regarding `NC[C@H]1O[C@H](O[C@H]2[C@H](O)[C@@H](O[C@H]3O[C@H](CO)[C@@H](O)[C@H](N)[C@H]3O)[C@H](N)C[C@@H]2N)[C@H](O)[C@@H](O)[C@@H]1O` [kanamycin], the “cross-reactivity with the HB-13 antibody” value in assay [1] is on record as “None of these compounds were observed to cross-react”.

Turning to spiramycin, in assay [1], the “cross-reactivity with the HB-13 antibody” value is “None of these compounds were observed to cross-react”.

Turning to `NCC[C@H](O)C(=O)N[C@@H]1C[C@H](N)[C@@H](O[C@H]2O[C@H](CN)[C@@H](O)[C@H](O)[C@H]2O)[C@H](O)[C@H]1O[C@H]1O[C@H](CO)[C@@H](O)[C@H](N)[C@H]1O` [amikacin], the “cross-reactivity with the HB-13 antibody” value in assay [1] is recorded as “None of these compounds were observed to cross-react”.

These data come from patent publication US5620890A, “Monoclonal antibodies to hygromycin B and the method of making the same” (The United States of America as represented by the …, priority 1995, dated 1997).
